A word on the inhibition: it is the change of the read-out against control, counted positive when it falls.

Inhibition data for 3 compounds are collected here from ChEMBL document CHEMBL1143760, “Stereoselective synthesis of beta-1-C-substituted 1,4-dideoxy-1,4-imino-D-galactitols and evaluation as UDP-galactopyranose mutase inhibitors” (Bioorg Med Chem, 2007).

For the test, the target named is T1, UDP-galactopyranose mutase (Escherichia coli K-12) (UniProt P37747).
T1 sequence (whole entry): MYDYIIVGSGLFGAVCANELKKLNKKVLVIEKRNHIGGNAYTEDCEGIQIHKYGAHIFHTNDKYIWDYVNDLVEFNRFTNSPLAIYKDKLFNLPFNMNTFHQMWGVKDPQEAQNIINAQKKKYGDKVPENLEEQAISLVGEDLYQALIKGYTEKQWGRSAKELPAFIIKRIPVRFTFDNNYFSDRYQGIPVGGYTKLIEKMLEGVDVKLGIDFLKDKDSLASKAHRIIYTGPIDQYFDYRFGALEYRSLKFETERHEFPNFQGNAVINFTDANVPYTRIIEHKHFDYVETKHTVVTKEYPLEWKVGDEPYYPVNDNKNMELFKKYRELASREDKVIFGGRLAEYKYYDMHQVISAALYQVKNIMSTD
The test can be described thus: Inhibition of Escherichia coli UDP galactopyranose mutase at 25 mM.
In the case of `CCOC(=O)CC[C@@H]1N[C@@H]([C@H](O)CO)[C@H](O)[C@H]1O`, the inhibition is below 50%.

For `OC[C@@H](O)[C@H]1[C@H](O)[C@@H](O)[C@@H]2CCCN12`, the inhibition was below 50%.

As for `O=C1CC[C@H]2[C@H](O)[C@@H](O)[C@H]([C@H](O)CO)N12`, the inhibition is below 50%.
